Data taken from patent US20230015308A1, “SUBSTITUTED THIAZOLE AROMATIC RING-BASED COMPOUND AND PREPARATION METHOD THEREFOR, HERBICIDAL COMPOSITION AND USE THEREOF” (QINGDAO KINGAGROOT CHEMICAL COMPOUND CO., LTD., priority 2019, published 2023).

Columns and labels:
Assay in all cases: Weeding effect in post-emergence stage (greenhouse pot test)
Format in all cases: in vivo
Settings in all cases: 15 g a.i./ha, 3 weeks after application
Amaranthus retroflexus = test system: Amaranthus retroflexus
Source text: (§1) The activity level criteria for plant damage (i.e., growth control rate) are as follows:
(§2) Level 5: growth control rate is above 85%;
(§3) Level 4: growth control rate is greater than or equal to 60% and less than 85%;
(§4) Level 3: growth control rate is greater than or equal to 40% and less than 60%;
(§5) Level 2: growth control rate is greater than or equal to 20% and less than 40%;
(§6) Level 1: growth control rate is greater than or equal to 5% and less than 20%;
(§7) Level 0: growth control rate is less than 5%.
(§8) The above growth control rates are fresh weight control rates.
(§9) Experiment on weeding effect in post-emergence stage:
(§10) Monocotyledonous and dicotyledonous weed seeds (Descurainia sophia, Capsella bursa-pastoris, Abutilon theophrasti, Galium aparine, Stellaria media, Lithospermum arvense, Rorippa indica, Alopecurus aequalis, Alopecurus japonicus, Beckmannia syzigachne, Sclerochloa dura, Conyza Canadensis, Phleum paniculatum, Veronica didyma Tenore, Eleusine indica, Bromus japonicus, Aegilops tauschii, Phalaris arundinacea, Amaranthus retroflexus, Chenopodium album, Commelina communis, Sonchus arvensis, Convolvulus arvensis, Cirsium setosum, Solanum nigrum, Acalypha australis, Digitaria sanguinalis, Echinochloa crusgalli, Setaria viridis, Setaria glauca, Leptochloa chinensis, Monochoria vaginalis, Sagittaria trifolia, Scirpus juncoides, Cyperus rotundus, Cyperus iria, Cyperus difformis, Fimbristylis, Portulaca oleracea, Xanthium sibiricum, Pharbitis nil) and major crop seeds (wheat, corn, rice, soybean, cotton, oilseed rape, millet, sorghum, potato, sesame, ricinus) were placed in plastic pots filled with soil, then covered with 0.5-2 cm of soil, allowed to grow in a good greenhouse environment. After 2 weeks of sowing, the test plants were treated in the 2-3 leaf stage. The tested compounds of the present invention were respectively dissolved in acetone, then added with Tween 80 and 1.5 liter/ha of emulsifiable concentrate of methyl oleate as synergist, diluted with a certain amount of water to obtain a solution with a certain concentration, and sprayed with a spray tower onto the plants. After the application, the plants were cultured for 3 weeks in the greenhouse, and then the experimental results of the weeding were counted. The doses of the used compounds were 500, 250, 125, 60, 15 g a.i./ha, and the averages were obtained by repeating for three times.

Setaria viridis = test system: Setaria viridis
Source text: as §1, §2, §3, §4, §5, §6, §7, §8, §9, §10

Abutilon theophrasti = test system: Abutilon theophrasti
Source text: as §1, §2, §3, §4, §5, §6, §7, §8, §9, §10

Echinochloa crusgalli = test system: Echinochloa crusgalli
Source text: as §1, §2, §3, §4, §5, §6, §7, §8, §9, §10

Veronica didyma Tenore = test system: Veronica didyma Tenore
Source text: as §1, §2, §3, §4, §5, §6, §7, §8, §9, §10

Galium aparine = test system: Galium aparine
Source text: as §1, §2, §3, §4, §5, §6, §7, §8, §9, §10

Digitaria sanguinalis = test system: Digitaria sanguinalis
Source text: as §1, §2, §3, §4, §5, §6, §7, §8, §9, §10

Alopecurus japonicus = test system: Alopecurus japonicus
Source text: as §1, §2, §3, §4, §5, §6, §7, §8, §9, §10

Beckmannia syzigachne = test system: Beckmannia syzigachne
Source text: as §1, §2, §3, §4, §5, §6, §7, §8, §9, §10

Row | SMILES | Amaranthus retroflexus, activity level (fresh weight growth control rate) (Amaranthus retroflexus) | Setaria viridis, activity level (fresh weight growth control rate) (Setaria viridis) | Abutilon theophrasti, activity level (fresh weight growth control rate) (Abutilon theophrasti) | Echinochloa crusgalli, activity level (fresh weight growth control rate) (Echinochloa crusgalli) | Veronica didyma Tenore, activity level (fresh weight growth control rate) (Veronica didyma Tenore) | Galium aparine, activity level (fresh weight growth control rate) (Galium aparine) | Digitaria sanguinalis, activity level (fresh weight growth control rate) (Digitaria sanguinalis) | Alopecurus japonicus, activity level (fresh weight growth control rate) (Alopecurus japonicus) | Beckmannia syzigachne, activity level (fresh weight growth control rate) (Beckmannia syzigachne)
1 | CCOC(=O)c1cnc(-c2cc(-n3c(=O)cc(C(F)(F)F)n(C)c3=O)c(F)cc2Cl)s1 [1-2] | 5 (Level 5: growth control rate is above 85%) | 5 (Level 5: growth control rate is above 85%) | 5 (Level 5: growth control rate is above 85%) | 5 (Level 5: growth control rate is above 85%) | 5 (Level 5: growth control rate is above 85%) | 5 (Level 5: growth control rate is above 85%) | 5 (Level 5: growth control rate is above 85%) | 4 (Level 4: growth control rate is greater than or equal to 60% and less than 85%) | 4 (Level 4: growth control rate is greater than or equal to 60% and less than 85%)
2 | C=CCOC(=O)c1cnc(-c2cc(-n3c(=O)cc(C(F)(F)F)n(C)c3=O)c(F)cc2Cl)s1 [1-10] | 5 (Level 5: growth control rate is above 85%) | 5 (Level 5: growth control rate is above 85%) | 5 (Level 5: growth control rate is above 85%) | 5 (Level 5: growth control rate is above 85%) | 5 (Level 5: growth control rate is above 85%) | 5 (Level 5: growth control rate is above 85%) | 4 (Level 4: growth control rate is greater than or equal to 60% and less than 85%) | 3 (Level 3: growth control rate is greater than or equal to 40% and less than 60%) | 3 (Level 3: growth control rate is greater than or equal to 40% and less than 60%)
3 | C#CCOC(=O)c1cnc(-c2cc(-n3c(=O)cc(C(F)(F)F)n(C)c3=O)c(F)cc2Cl)s1 [1-12] | 5 (Level 5: growth control rate is above 85%) | 5 (Level 5: growth control rate is above 85%) | 5 (Level 5: growth control rate is above 85%) | 5 (Level 5: growth control rate is above 85%) | 5 (Level 5: growth control rate is above 85%) | 5 (Level 5: growth control rate is above 85%) | 5 (Level 5: growth control rate is above 85%) | 3 (Level 3: growth control rate is greater than or equal to 40% and less than 60%) | 3 (Level 3: growth control rate is greater than or equal to 40% and less than 60%)
4 | Cn1c(C(F)(F)F)cc(=O)n(-c2cc(-c3ncc(C(=O)OCC4CCCO4)s3)c(Cl)cc2F)c1=O (centres unmarked) [1-33] | 5 (Level 5: growth control rate is above 85%) | 5 (Level 5: growth control rate is above 85%) | 5 (Level 5: growth control rate is above 85%) | 5 (Level 5: growth control rate is above 85%) | 5 (Level 5: growth control rate is above 85%) | 5 (Level 5: growth control rate is above 85%) | 5 (Level 5: growth control rate is above 85%) | 3 (Level 3: growth control rate is greater than or equal to 40% and less than 60%) | 3 (Level 3: growth control rate is greater than or equal to 40% and less than 60%)
5 | Cn1c(C(F)(F)F)cc(=O)n(-c2cc(-c3ncc(C(=O)OCc4ccccc4)s3)c(Cl)cc2F)c1=O [1-35] | 5 (Level 5: growth control rate is above 85%) | 5 (Level 5: growth control rate is above 85%) | 5 (Level 5: growth control rate is above 85%) | 4 (Level 4: growth control rate is greater than or equal to 60% and less than 85%) | 5 (Level 5: growth control rate is above 85%) | 5 (Level 5: growth control rate is above 85%) | 3 (Level 3: growth control rate is greater than or equal to 40% and less than 60%) |  | 
6 | COC(=O)C(C)OC(=O)c1cnc(-c2cc(-n3c(=O)cc(C(F)(F)F)n(C)c3=O)c(F)cc2Cl)s1 (centres unmarked) [1-48] | 5 (Level 5: growth control rate is above 85%) | 5 (Level 5: growth control rate is above 85%) | 5 (Level 5: growth control rate is above 85%) | 5 (Level 5: growth control rate is above 85%) | 5 (Level 5: growth control rate is above 85%) | 5 (Level 5: growth control rate is above 85%) | 4 (Level 4: growth control rate is greater than or equal to 60% and less than 85%) |  | 
7 | CC(C)=NOC(=O)c1cnc(-c2cc(-n3c(=O)cc(C(F)(F)F)n(C)c3=O)c(F)cc2Cl)s1 [1-55] | 5 (Level 5: growth control rate is above 85%) | 5 (Level 5: growth control rate is above 85%) | 5 (Level 5: growth control rate is above 85%) | 5 (Level 5: growth control rate is above 85%) | 5 (Level 5: growth control rate is above 85%) | 5 (Level 5: growth control rate is above 85%) | 5 (Level 5: growth control rate is above 85%) |  | 
8 | CCOC(=O)c1csc(-c2cc(-n3c(=O)cc(C(F)(F)F)n(C)c3=O)c(F)cc2Cl)n1 [2-2] | 5 (Level 5: growth control rate is above 85%) |  | 5 (Level 5: growth control rate is above 85%) |  | 5 (Level 5: growth control rate is above 85%) | 5 (Level 5: growth control rate is above 85%) | 4 (Level 4: growth control rate is greater than or equal to 60% and less than 85%) |  | 
9 | CCOC(=O)c1csc(-c2cc(-n3c(=O)n(C)c(=S)n(C)c3=O)c(F)cc2Cl)n1 [2-113] | 5 (Level 5: growth control rate is above 85%) |  |  |  | 5 (Level 5: growth control rate is above 85%) | 5 (Level 5: growth control rate is above 85%) |  |  | 
10 | COC(=O)c1nc(-c2cc(-n3c(=O)cc(C(F)(F)F)n(C)c3=O)c(F)cc2Cl)cs1 [4-1] | 5 (Level 5: growth control rate is above 85%) |  |  | 4 (Level 4: growth control rate is greater than or equal to 60% and less than 85%) | 5 (Level 5: growth control rate is above 85%) |  |  |  | 
11 | COC(=O)c1nc(-c2cc(-n3c(=O)n(C)c(=S)n(C)c3=O)c(F)cc2Cl)cs1 [4-158] | 5 (Level 5: growth control rate is above 85%) |  |  |  | 5 (Level 5: growth control rate is above 85%) | 5 (Level 5: growth control rate is above 85%) |  |  | 
